This is an account of results in publication PMC6152009, “The Influence of Glycosylation of Natural and Synthetic Prenylated Flavonoids on Binding to Human Serum Albumin and Inhibition of Cyclooxygenases COX-1 and COX-2” (Molecules : A Journal of Synthetic Chemistry and Natural …, 2017).

Structures are written as SMILES.

In this assay the target is T1, human serum albumin (HSA) (Homo sapiens, UniProt P02768).
T1 construct: gene ALB; essentially fatty acid free HSA
T1 sequence (P02768 25-609): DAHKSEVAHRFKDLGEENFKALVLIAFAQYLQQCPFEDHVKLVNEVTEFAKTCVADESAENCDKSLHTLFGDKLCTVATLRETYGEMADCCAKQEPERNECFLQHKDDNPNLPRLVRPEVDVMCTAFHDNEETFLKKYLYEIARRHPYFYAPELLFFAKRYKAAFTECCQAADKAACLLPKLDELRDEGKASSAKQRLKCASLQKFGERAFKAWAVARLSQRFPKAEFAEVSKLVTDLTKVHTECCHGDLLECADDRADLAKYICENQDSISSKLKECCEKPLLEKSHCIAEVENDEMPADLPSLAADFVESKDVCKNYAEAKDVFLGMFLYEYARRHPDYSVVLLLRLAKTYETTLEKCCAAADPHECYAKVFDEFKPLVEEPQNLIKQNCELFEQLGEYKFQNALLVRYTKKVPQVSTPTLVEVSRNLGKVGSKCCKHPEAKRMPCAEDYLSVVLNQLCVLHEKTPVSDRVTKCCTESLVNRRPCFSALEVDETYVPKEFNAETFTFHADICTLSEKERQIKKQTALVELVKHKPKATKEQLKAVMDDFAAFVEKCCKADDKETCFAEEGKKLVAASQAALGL
The experiment in a line: intrinsic fluorescence quenching, double-log plot. In kind it is binding. Conditions: 300 K, phosphate buffer pH 7.4, 15 µM HSA, <2% DMSO. An excerpt: intrinsic fluorescence quenching, double-log plot on human serum albumin (HSA)
With `COc1cc(O)c(CC=C(C)C)c(O)c1C(=O)/C=C/c1ccc(O)cc1` [compound 1, 3’-[3”,3”-dimethylallyl]-2’,4’,4-trihydroxy-6’-methoxychalcone], the Kb was found to be 86240 M⁻¹. Compound `COc1cc(O)c(CC=C(C)C)c(O)c1C(=O)CCc1ccc(O)cc1` [compound 2, α,β-dihydroxanthohumol] returned a Kb of 36350 M⁻¹. Under `COc1cc(O)c(CC=C(C)C)c2c1C(=O)/C(=C/c1ccc(O)cc1)O2` [compound 3, (Z)-6,4’-dihydroxy-4-methoxy-7-prenylaurone] stands 14250 M⁻¹; under `COc1cc(O[C@@H]2O[C@H](CO)[C@@H](O)[C@H](O)[C@H]2O)c(CC=C(C)C)c(O)c1C(=O)/C=C/c1ccc(O)cc1` [compound 4, Xanthohumol 4’-O-β-D-glucopyranoside], 32710 M⁻¹.

For `COc1cc(O[C@@H]2O[C@H](CO)[C@@H](OC)[C@H](O)[C@H]2O)c(CC=C(C)C)c(O)c1C(=O)/C=C/c1ccc(O)cc1` [compound 5, Xanthohumol 4’-O-β-D-(4’’’-O-methyl)glucopyranoside], the Kb amounted to 4550 M⁻¹. Under `COc1cc(O[C@@H]2O[C@H](CO)[C@@H](O)[C@H](O)[C@H]2O)c(CC=C(C)C)c(O)c1C(=O)CCc1ccc(O)cc1` [compound 6, α,β-Dihydroxanthohumol 4’-O-β-D-glucopyranoside] stands 4480 M⁻¹; under `COc1cc(O[C@@H]2O[C@H](CO)[C@@H](OC)[C@H](O)[C@H]2O)c(CC=C(C)C)c(O)c1C(=O)CCc1ccc(O)cc1` [compound 7, α,β-Dihydroxanthohumol 4’-O-β-D-(4’’’-O-methyl)glucopyranoside], 6110 M⁻¹. As for `COc1cc(O[C@@H]2O[C@H](CO)[C@@H](O)[C@H](O)[C@H]2O)c(CC=C(C)C)c2c1C(=O)/C(=C/c1ccc(O)cc1)O2` [compound 8, (Z)-6,4’-Dihydroxy-4-methoxy-7-prenylaurone 6-O-β-D-glucopyranoside], the figure is 4850 M⁻¹. As for `COc1cc(O[C@@H]2O[C@H](CO)[C@@H](OC)[C@H](O)[C@H]2O)c(CC=C(C)C)c2c1C(=O)/C(=C/c1ccc(O)cc1)O2` [compound 9, (Z)-6,4’-Dihydroxy-4-methoxy-7-prenylaurone 6-O-β-D-(4’’’-O-methyl)glucopyranoside], the figure is 9150 M⁻¹.
